# Source: patent US11691992B2 (Anacor Pharmaceuticals, Inc., priority 2017, dated 2023)
# Where two headings read alike, the source gives them in different places.
# Assays:
# Type in all cases: cell-based
# [1] = system: bloodstream-form trypanosome T. brucei brucei 427 strain; test: Trypanosoma brucei brucei high-throughput screening assay (resazurin)
# Method: Example 105. Trypanosoma brucei brucei High-Throughput Screening Assay Procedure
# All experiments were conducted with the bloodstream-form trypanosome T. brucei brucei 427 strain obtained from Seattle Biomedical Research Institute (Seattle, Wash.). Parasites were cultured in T-25 vented cap flasks and kept in humidified incubators at 37° C. and 5% CO2. The parasite culture media was complete HMI-9 medium containing 10% FBS, 10% Serum Plus medium and penicillin/streptomycin. To ensure log growth phase, trypanosomes were sub-cultured at appropriate dilutions every 2-3 days. Approximately 50 microliters of log phase cultures were diluted 1:10 in HMI-9 and 10 μL of the diluted culture was removed and counted using a hemocytometer to determine parasite concentration. Parasites were diluted by addition of an appropriate volume of HMI-9 to achieve a final parasite concentration of 2×10^5/mL. Compounds of the invention to be tested were serially diluted in DMSO and 0.5 μL added to 49.5 μL HMI-9 in triplicate 96-well plates using a Biomek NX liquid handler. Parasites from the diluted stock were added to each well (50 μL) using a Multidrop 384 dispenser to give a final concentration of 1.0×10^5/ml parasites in […] for DMSO. Trypanosomes were incubated with compounds for 72 hrs at 37° C. with 5% CO2. Resazurin (20 μL of 12.5 mg/ml stock) from Sigma-Aldrich was added to each well and plates were incubated for an additional 2-4 hrs. Assay plates were read using an EnVision plate reader at an excitation wavelength of 544 nm and emission of 590 nm. Triplicate data points were averaged to generate sigmoidal dose response curve and determine IC50 values using XLfit curve fitting software from IDBS (Guildford, UK).
# [2] = system: bloodstream forms of T. b. rhodesiense STIB 900; test: T. brucei rhodesiense STIB 900 growth inhibition assay; conditions: Trypanosoma brucei, 72 h
# Method in brief: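 Bloodstream-form STIB 900 (10^4/well) were cultured in supplemented MEM with 15% horse serum and compound (90 to 0.123 μg/ml, 3-fold steps) for 72 h at 37 °C, 5% CO2. Viability was read by Alamar Blue fluorescence (ex 536/em 588 nm) after a further 2-4 h.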
# [3] = system: promastigote forms of L. major; test: Leishmania major promastigote growth inhibition assay (Alamar Blue); conditions: promastigotes, 44 hours + 4 hours Alamar Blue, read-out: IC50: I Org. promastigote Growth L. major, 2 d
# Method in brief: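 Early-log L. major promastigotes (5,000/well) in Schneider's medium with 20% FBS incubated with compound 44 h at 28° C; drug solutions in DMSO were 10,000 or 1,000 ng/ml before dispensing. Alamar Blue added 4 h, fluorescence at 560/590 nm gives percent growth inhibition; IC50 determined for compounds inhibiting ≥50%.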
# [4] = 72 h, read-out: IC50: I Org. Growth T. brucei brucei SBRI 427, 3 d [uM]
# [5] = read-out: IC50: I Org. Growth T. brucei rhodesiense STIB 900, 3 d [uM]
# [6] = bloodstream form, 72 hrs incubation, resazurin, read-out: IC50: I Org. Growth T. brucei brucei SBRI 427, 3 d
# [7] = bloodstream forms, Alamar Blue, protocol of Example 110, read-out: IC50: I Org. Growth T. brucei rhodesiense STIB 900, 3 d
Compound,"IC50 [1, 4]","IC50 [2, 5]","IC50 [1, 6]",IC50 [3],"IC50 [2, 7]"
"O=C(Nc1ccc2c(c1)B(O)OC2)c1nnn(-c2ccccc2)c1C(F)(F)F [Example 68, N-(1-hydroxy-1,3-dihydrobenzo[c][1,2]oxaborol-6-yl)-1-phenyl-5-(trifluoromethyl)-1H-1,2,3-triazole-4-carboxamide]",0.151 to 10 µM,< 0.1 µM,–,–,–
"O=C(Nc1ccc2c(c1)B(O)OC2)c1cn(-c2ccccn2)nn1 [Example 61, N-(1-hydroxy-1,3-dihydrobenzo[c][1,2]oxaborol-6-yl)-1-(pyridin-2-yl)-1H-1,2,3-triazole-4-carboxamide]",–,–,< 0.075 µM,< 600 nM,< 0.1 µM
"COc1ccc(-n2nnc(C(=O)Nc3ccc4c(c3)B(O)OC4)c2C)cc1 [Example 91, N-(1-hydroxy-1,3-dihydrobenzo[c][1,2]oxaborol-6-yl)-1-(4-methoxyphenyl)-5-methyl-1H-1,2,3-triazole-4-carboxamide]",–,–,< 0.075 µM,< 600 nM,–
"Cc1c(C(=O)Nc2ccc3c(c2)B(O)OC3)nnn1-c1ccccn1 [Example 84, N-(1-hydroxy-1,3-dihydrobenzo[c][1,2]oxaborol-6-yl)-5-methyl-1-(pyridin-2-yl)-1H-1,2,3-triazole-4-carboxamide]",–,–,< 0.075 µM,< 600 nM,< 0.1 µM
"O=C(Nc1ccc2c(c1)B(O)OC2)c1cn(-c2ccc(F)cc2)nn1 [Example 60, 1-(4-Fluorophenyl)-N-(1-hydroxy-1,3-dihydrobenzo[c][1,2]oxaborol-6-yl)-1H-1,2,3-triazole-4-carboxamide]",–,–,0.075 to 0.15 µM,–,–
"Cc1c(C(=O)Nc2ccc3c(c2)B(O)OC3)nnn1-c1ccccc1 [Example 89, A-(1-hydroxy-1,3-dihydrobenzo[c][1,2]oxaborol-6-yl)-5-methyl-1-phenyl-1H-1,2,3-triazole-4-carboxamide]",< 0.075 µM,< 0.1 µM,–,–,–
